This passage reports IC50, Kd and EC50 results from patent US20200385371A1 (Propellon Therapeutics Inc., priority 2017, published 2020).

Test [1] concerns the target T1, WDR5 (Homo sapiens, UniProt P61964). Nature of the test: Fluorescence Polarization (FP) binding assay. Put shortly:
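Buffer was pH 6.5 sodium phosphate (80 mM) with 20 mM KCl and 0.008% Triton X-100; 9-Ala-FAM probe at 20 nM used 0.05 μM WDR5 and 480/540 nm polarization, H3 (1-15) probe at 30 nM used 0.3 μM WDR5 and 485/528 nm. Quadruplicate data were hyperbola-fitted to give Kdisp.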
A general note: Polarisation of emitted light reports the rotation of a fluorescent probe.

Test [2] has as its target T1, WDR5. The experiment in a line: Surface Plasmon Resonance (SPR) assay. Type of test: binding. Also noted: Full length WDR5 with an N-terminal His tag and C-terminal AviTag; His tag (N); made in house; host or cells: E. coli. The following applies: read-out: SPR Kd. Summed up:
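Full-length biotinylated WDR5 (N-His, C-AviTag, E. coli) captured (~3000 RU) on streptavidin SA chip; Biacore T200. HBS-EP pH 7.4 plus 5% DMSO running buffer, 40 μl/min.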

In the next test the test system is MV4-11 cells. Nature of the test: Cell proliferation assay (ATPlite). It is filed as cell-based. The conditions noted are these: Homo sapiens, 120 h; MV4-11 cells, five days; read-out: GI MV411 EC50. As for the experimental part: MV4-11 cells were seeded into a 96-well plate at 1,000 cells/well in 150 μl medium (Alpha-MEM containing 10% FBS, 100 μg/ml Normocin, and 50 μg/ml Gentamycin, Invitrogen). A HP D300 digital dispenser was used to dose cells with DMSO or test compounds across a 10-point range of concentrations (high dose of 10 μM), and cultures were grown in a humidified 5% CO2 incubator at 37° C. After five days, plates were removed from incubator and equilibrated to room temperature. An equal volume of ATPlite assay reagent was added to each well, and samples were processed according to manufacturer's instructions (Perkin Elmer). Luminescent signal was measured using an Envision plate reader equipped with a US-Luminescence detector.

In the case of `C[C@H]1CN(c2cc(F)c(C3=CCN(C(=O)OC4(C)CCC4)CC3)c(F)c2NC(=O)c2c[nH]c(=O)cc2C(F)F)CCN1C` [Example 92, 1-Methylcyclobutyl(S)-4-(3-(4-(difluoromethyl)-6-oxo-1,6-dihydropyridine-3-carboxamido)-4-(3,4-dimethylpiperazin-1-yl)-2,6-difluorophenyl)-3,6-dihydropyridine-1(2H)-carboxylate], on WDR5 [1], the 50% inhibitory concentration (IC50) stood at 0.0156 µM. In addition, the Kd on WDR5 [2] amounted to 0.00279 µM. Also, the EC50 in the test on MV4-11 cells was found to be 0.0228 µM.
With `C[C@@H]1CN(c2cc(F)c(-c3cnc(N4CCOCC4)nc3)c(F)c2NC(=O)c2cn(C)c(=O)cc2C(F)F)C[C@H](C)N1C` [Example 40, N-(2,4-difluoro-3-(2-morpholinopyrimidin-5-yl)-6-((3S,5R)-3,4,5-trimethylpiperazin-1-yl)phenyl)-4-(difluoromethyl)-1-methyl-6-oxo-1,6-dihydropyridine-3-carboxamide], on WDR5 [1], the concentration for half-maximal inhibition (IC50) worked out at 0.0201 µM. In addition, the Kd at WDR5 [2] is 0.00285 µM. Also, the EC50 in the test on MV4-11 cells worked out at 0.286 µM.
Regarding `CC(C)OC(=O)N1CC=C(c2c(F)cc(N3CCN(C)[C@@H](C)C3)c(NC(=O)c3c[nH]c(=O)cc3C(F)F)c2F)CC1` [Example 34, Isopropyl (S)-4-(3-(4-(difluoromethyl)-6-oxo-1,6-dihydropyridine-3-carboxamido)-4-(3,4-dimethylpiperazin-1-yl)-2,6-difluorophenyl)-3,6-dihydropyridine-1(2H)-carboxylate], the half-inhibitory concentration (IC50) on WDR5 [1] came to 0.022 µM. The equilibrium dissociation constant (Kd) at WDR5 [2] came out at 0.00202 µM. Further, the EC50 in the test with MV4-11 cells came to 0.0444 µM.
With `COc1cnc(N2CC=C(c3c(F)cc(N4CCN(C)[C@@H](C)C4)c(NC(=O)c4c[nH]c(=O)cc4C(F)(F)F)c3F)C2)nc1` [Example 51, (S)—N-(6-(3,4-dimethylpiperazin-1-yl)-2,4-difluoro-3-(1-(5-methoxypyrimidin-2-yl)-2,5-dihydro-1H-pyrrol-3-yl)phenyl)-6-oxo-4-(trifluoromethyl)-1,6-dihydropyridine-3-carboxamide], the IC50 at WDR5 [1] was 0.017 µM. In addition, the dissociation constant Kd at WDR5 [2] was found to be 0.0011 µM. Besides, the EC50 in the test on MV4-11 cells is 0.111 µM.
As for `C[C@@H]1CN(c2cc(F)c(-c3ccc4c(c3)OCO4)c(F)c2NC(=O)c2c[nH]c(=O)cc2C(F)(F)F)C[C@H](C)N1C` [Example 71, N-(3-(benzo[d][1,3]dioxol-5-yl)-2,4-difluoro-6-((3S,5R)-3,4,5-trimethylpiperazin-1-yl)phenyl)-6-oxo-4-(trifluoromethyl)-1,6-dihydropyridine-3-carboxamide], the IC50 on WDR5 [1] came out at 0.0151 µM. Moreover, the dissociation constant (Kd) on WDR5 [2] is 0.00165 µM. Further, the EC50 with MV4-11 cells worked out at 0.0644 µM.
For `C[C@@H]1CN(c2ncc(-c3c(F)cc(N4C[C@@H](C)N(C)[C@@H](C)C4)c(NC(=O)c4c[nH]c(=O)cc4C(F)(F)F)c3F)cn2)C[C@@H](C)O1` [Example 86, N-(3-(2-((2R,6R)-2,6-dimethylmorpholino)pyrimidin-5-yl)-2,4-difluoro-6-((3S,5R)-3,4,5-trimethylpiperazin-1-yl)phenyl)-6-oxo-4-(trifluoromethyl)-1,6-dihydropyridine-3-carboxamide], the half-maximal inhibitory concentration (IC50) on WDR5 [1] was 0.0131 µM. For the same molecule, the dissociation constant Kd on WDR5 [2] was found to be 0.00088 µM. In addition, the EC50 in the test on MV4-11 cells came to 0.0105 µM.
As for `C[C@@H]1CN(c2ccc(-c3c(F)cc(N4C[C@@H](C)N(C)[C@@H](C)C4)c(NC(=O)c4c[nH]c(=O)cc4C(F)F)c3F)cn2)CCO1` [Example 190, N-(2,4-difluoro-3-(6-((R)-2-methylmorpholino)pyridin-3-yl)-6-((3S,5R)-3,4,5-trimethylpiperazin-1-yl)phenyl)-4-(difluoromethyl)-6-oxo-1,6-dihydropyridine-3-carboxamide], the 50% inhibitory concentration (IC50) at WDR5 [1] was determined as 0.0128 µM. Moreover, the Kd at WDR5 [2] was 0.00096 µM. For the same molecule, in the test with MV4-11 cells, the EC50 worked out at 0.0486 µM.
With `COc1cnc(N2CC=C(c3c(F)cc(N4C[C@@H](C)N(C)[C@@H](C)C4)c(NC(=O)c4c[nH]c(=O)cc4C(F)(F)F)c3F)C2)nc1` [Example 139, N-(2,4-difluoro-3-(1-(5-methoxypyrimidin-2-yl)-2,5-dihydro-1H-pyrrol-3-yl)-6-((3S,5R)-3,4,5-trimethylpiperazin-1-yl)phenyl)-6-oxo-4-(trifluoromethyl)-1,6-dihydropyridine-3-carboxamide], the 50% inhibitory concentration (IC50) on WDR5 [1] was 0.012 µM. In addition, the equilibrium dissociation constant (Kd) at WDR5 [2] is 0.00165 µM. Moreover, in the test with MV4-11 cells, the half-maximal effective concentration (EC50) came out at 0.0185 µM.
In the case of `CC(C)OC(=O)N1CC=C(c2c(F)cc(N3CCN(C)[C@@H](C)C3)c(NC(=O)c3c[nH]c(=O)cc3C(F)F)c2F)C1` [Example 36, Isopropyl (S)-3-(3-(4-(difluoromethyl)-6-oxo-1,6-dihydropyridine-3-carboxamido)-4-(3,4-dimethylpiperazin-1-yl)-2,6-difluorophenyl)-2,5-dihydro-H-pyrrole-1-carboxylate], the IC50 at WDR5 [1] was 0.0132 µM. On WDR5 [2], the dissociation constant Kd was 0.00104 µM. In addition, the EC50 with MV4-11 cells came to 0.0545 µM.
For `CC(C)OC(=O)N1CC=C(c2c(F)cc(N3C[C@@H](C)N(C)[C@@H](C)C3)c(NC(=O)c3c[nH]c(=O)cc3C(F)(F)F)c2F)CC1` [Example 133] the same measures were 0.0123 µM, 0.00262 µM and 0.0585 µM.
In the same order, the values of `C[C@@H]1CN(c2ccc(-c3c(F)cc(N4CCN(C)[C@@H](C)C4)c(NC(=O)c4c[nH]c(=O)cc4C(F)(F)F)c3F)cn2)CCO1` [Example 169, N-(6-((S)-3,4-dimethylpiperazin-1-yl)-2,4-difluoro-3-(6-((R)-2-methylmorpholino)pyridin-3-yl)phenyl)-6-oxo-4-(trifluoromethyl)-1,6-dihydropyridine-3-carboxamide] are 0.0167 µM, 0.00099 µM and 0.0514 µM.
With `C[C@@H]1CN(c2cc(F)c(-c3ccc(N4CCOCC4)c(F)c3)c(F)c2NC(=O)c2c[nH]c(=O)cc2C(F)(F)F)C[C@H](C)N1C` [Example 9, 6-Oxo-N-(2,3′,6-trifluoro-4′-morpholino-4-((3S,5R)-3,4,5-trimethylpiperazin-1-yl)-[1,1′-biphenyl]-3-yl)-4-(trifluoromethyl)-1,6-dihydropyridine-3-carboxamide], the IC50 on WDR5 [1] was 0.0153 µM. For the same molecule, the Kd at WDR5 [2] is 0.00133 µM. In the test with MV4-11 cells, the EC50 worked out at 0.123 µM.
On to `C[C@@H]1CN(c2nc(-c3c(F)cc(N4CCN(C)[C@@H](C)C4)c(NC(=O)c4c[nH]c(=O)cc4C(F)(F)F)c3F)cs2)C[C@H](C)O1` [Example 131, N-(3-(2-((2S,6R)-2,6-dimethylmorpholino)thiazol-4-yl)-6-((S)-3,4-dimethylpiperazin-1-yl)-2,4-difluorophenyl)-6-oxo-4-(trifluoromethyl)-1,6-dihydropyridine-3-carboxamide], for which the IC50 on WDR5 [1] amounted to 0.0166 µM. On WDR5 [2], the equilibrium dissociation constant (Kd) amounted to 0.00512 µM. Also, the EC50 with MV4-11 cells was determined as 0.208 µM.
For `CC(C)OC(=O)N1CC=C(c2c(F)cc(N3CCN(C)[C@@H](C)C3)c(NC(=O)c3c[nH]c(=O)cc3C(F)(F)F)c2F)C1` [Example 37, Isopropyl (S)-3-(4-(3,4-dimethylpiperazin-1-yl)-2,6-difluoro-3-(6-oxo-4-(trifluoromethyl)-1,6-dihydropyridine-3-carboxamido)phenyl)-2,5-dihydro-1H-pyrrole-1-carboxylate] the same measures were 0.0162 µM, 0.00224 µM and 0.108 µM.
In the case of `CC(C)[C@@H]1CN(c2nccc(-c3c(F)cc(N4CCN(C)[C@@H](C)C4)c(NC(=O)c4c[nH]c(=O)cc4C(F)F)c3F)n2)CCO1` [Example 124, 4-(Difluoromethyl)-N-(6-((S)-3,4-dimethylpiperazin-1-yl)-2,4-difluoro-3-(2-((R)-2-isopropylmorpholino)pyrimidin-4-yl)phenyl)-6-oxo-1,6-dihydropyridine-3-carboxamide], the concentration for half-maximal inhibition (IC50) on WDR5 [1] is 0.0124 µM. For the same molecule, the Kd on WDR5 [2] worked out at 0.0008 µM. In the test on MV4-11 cells, the EC50 was 0.0559 µM.
Regarding `C[C@H]1CN(c2cc(F)c(C3=CCN(C(=O)OC4CC(F)(F)C4)CC3)c(F)c2NC(=O)c2c[nH]c(=O)cc2C(F)(F)F)CCN1C` [Example 47, 3,3-Difluorocyclobutyl (S)-4-(4-(3,4-dimethylpiperazin-1-yl)-2,6-difluoro-3-(6-oxo-4-(trifluoromethyl)-1,6-dihydropyridine-3-carboxamido)phenyl)-3,6-dihydropyridine-1(2H)-carboxylate], the IC50 on WDR5 [1] was determined as 0.0175 µM. Also, the dissociation constant (Kd) at WDR5 [2] was found to be 0.00135 µM. In addition, in the test with MV4-11 cells, the EC50 is 0.063 µM.
In the same order, the values of `C[C@H]1CN(c2cc(F)c(C3=CCCN(c4ncc(F)cn4)C3)c(F)c2NC(=O)c2c[nH]c(=O)cc2C(F)(F)F)CCN1C` [Example 84, (S)—N-(6-(3,4-dimethylpiperazin-1-yl)-2,4-difluoro-3-(1-(5-fluoropyrimidin-2-yl)-1,2,5,6-tetrahydropyridin-3-yl)phenyl)-6-oxo-4-(trifluoromethyl)-1,6-dihydropyridine-3-carboxamide] are 0.0164 µM, 0.00143 µM and 0.162 µM.

As usually defined, the IC50 is the midpoint of a concentration-inhibition curve. What is called Kd is the free concentration of one partner at which half of the binding sites on the other are occupied at equilibrium, for simple one-to-one binding. What is called EC50 is the concentration needed to bring the measured effect to its halfway point.
